# Key:
# [1] = system: CIPN caused by bortezomib; settings: mice (Bobylev et al., 2017); cited from earlier work
# mouse DRG neurons = settings: cultured mouse DRG neurons (Haque et al., 2004); cited from earlier work
# [2] = system: microtubule detyrosination in keratinocytes; test: GluTub immunofluorescence of detyrosinated microtubules in zebrafish caudal fin keratinocytes; assay type: in vivo; settings: 96 hr
# Method: (§1) The stock solution was divided into 20-30 μl aliquots and stored at −20 °C until use (maximal 6 months). Immediately prior to use, paclitaxel was diluted in Ringer's solution and added to dechorionated larval zebrafish. The larval fish were placed individually or in small groups into wells of a 12-well plate containing the treatment solutions. The control group was 0.05% DMSO. Plates were incubated at 28.5 °C and protected from light. Treatment lengths are indicated in the Drawings, Description of the Drawings, and Examples where appropriate. […] EMD534085, Eg5 inhibitor (MedChemExpress, Cat. No. HY-15000) was diluted in 100% DMSO to make a 10 mM stock solution and stored at −20 °C. […] The solutions were exchanged every 48 hr.
# Larval fish were transferred into […] glass vials and fixed in 4% paraformaldehyde (PFA)/1× Phosphate-buffered saline (PBS) for 1.5 hr at room temperature, with gentle rocking. Following a 5-minute incubation in 1×PBS+0.1% Tween-20 (PBST), zebrafish were permeabilized in 1×PBS+0.1% Triton X-100 for 10-30 min. Larval fish were transferred into 2 ml reaction tubes and incubated in blocking buffer (1×PBST+5% BSA) for 30 min at room temperature, with rocking. Larval fish were further incubated overnight in antibody solution (Millipore Sigma, Cat. No. AB3201, 1:300 rabbit anti-GluTub; Sigma, Cat No. T6793, 1:500 mouse anti-acetylated tubulin) in blocking buffer at 4 °C, on a rotator. The next morning, larval fish were transferred into 6-well plates and washed 4×15 min in 1×PBST at room temperature, with rocking. This was followed by incubation in secondary antibody (goat anti-rabbit Cy5, Abcam, Cat. No. ab97077; goat anti-mouse Cy3, Abcam, Cat. No. ab97035) and 1:10,000 Hoechst 33342 (ThermoFisher Scientific, Cat. No. 62249, 20 mM solution) in blocking buffer for 1 hr at room temperature, with rocking. Fish were covered to avoid bleaching. […]
# Fluorescence intensities were measured using the Imaris MATLAB plugin or Fiji. A line was typically placed over the region of interest and the fluorescence automatically quantified. The values were normalized to nuclear (Hoechst33342) fluorescence intensities within the same fish and region to obtain an intensity ratio.
# Stabilized microtubules undergo a modification whereby the terminal tyrosine residue was removed, leading to detyrosination (dMT) (Roll-Mecak et al., 2020, Developmental cell 54: 7-20), which was associated with particularly long-term stabilized microtubule populations (Khawaja et al., 1988, The Journal of cell biology 106: 141-149). Exposure of the penultimate glutamate residue can be detected using a GluTub antibody. […]
# [3] = system: caudal fin keratinocytes (dfMTs); test: dfMT formation (detyrosinated fasciculated looped microtubules) in zebrafish caudal fin keratinocytes; assay type: in vivo
# Method: as §1
# (§2) Larval fish were transferred into […] glass vials and fixed in 4% paraformaldehyde (PFA)/1× Phosphate-buffered saline (PBS) for 1.5 hr at room temperature, with gentle rocking. Following a 5-minute incubation in 1×PBS+0.1% Tween-20 (PBST), zebrafish were permeabilized in 1×PBS+0.1% Triton X-100 for 10-30 min. Larval fish were transferred into 2 ml reaction tubes and incubated in blocking buffer (1×PBST+5% BSA) for 30 min at room temperature, with rocking. Larval fish were further incubated overnight in antibody solution (Millipore Sigma, Cat. No. AB3201, 1:300 rabbit anti-GluTub; Sigma, Cat No. T6793, 1:500 mouse anti-acetylated tubulin) in blocking buffer at 4 °C, on a rotator. The next morning, larval fish were transferred into 6-well plates and washed 4×15 min in 1×PBST at room temperature, with rocking. This was followed by incubation in secondary antibody (goat anti-rabbit Cy5, Abcam, Cat. No. ab97077; goat anti-mouse Cy3, Abcam, Cat. No. ab97035) and 1:10,000 Hoechst 33342 (ThermoFisher Scientific, Cat. No. 62249, 20 mM solution) in blocking buffer for 1 hr at room temperature, with rocking. Fish were covered to avoid bleaching. Fish were washed for 4×15 min in 1×PBST at room temperature, with rocking, and immediately mounted for imaging on glass bottom petri dishes (Spectrum Laboratory Products, Cat. No. 750-10403-UE) using 1% agarose (Thermo Fisher Scientific, Cat. No. 16520050). A 1:200 dilution was used for mouse alpha-tubulin antibody (Proteintech, Cat. No. 66031-1) and a 1:1,000 dilution of donkey anti-mouse IgG Alexa488 (ThermoFisher Scientific, Cat. No. A-21202) for secondary detection. For Nox1 immunostaining, a 1:300 dilution of primary antibody (Anti-NOX1 Rabbit Polyclonal Antibody, Avantar, Cat. No. 102164-796) and a 1:1,000 dilution of secondary goat anti-rabbit Cy2 (Abcam, Cat. No. ab6940) antibody was used. Eg5 antibody (Abcam, Cat. No. 61199) was used at a 1:100 and secondary goat anti-rabbit Cy2 (Abcam, Cat. No. ab6940) at 1:1,000 dilution.
# CRISPR oligos targeting kif11 were designed using the IDT CRISPR design tool (https://www.idtdna.com/site/order/designtool/index/CRISPR_CUSTOM). The oligo (5′-[…] (SEQ ID NO: 21) was designed to anneal within exon 5 of 23 exons total in zebrafish kif11 with expected mutations ~ position 270 bp in the sequenced region using the following primers for PCR amplification: Fwd 5′-[…]-3′ (SEQ ID NO: 22) and Rev 5′-[…]-3′ (SEQ ID NO: 23). The forward primer was used for sequencing and yielded deletions in transiently injected embryos, as shown in example below in which single zebrafish were sequenced (FIG. 10).
# The CRISPR oligo was injected using the Alt-R system (IDT, https://www.idtdna.com/pages/technology/crispr/crispr-genome-editing/Alt-R-systems/cas9), which has provided highly reliable and efficient zebrafish knockout results as used herein. The IDT-recommended protocol (below) was used for CRISPR oligo preparations. Fertilized eggs were injected ~15 minutes post fertilization with CRISPR oligos to ensure maximal efficiency.
# Cell counting in the caudal fin was performed in three 100 μm^2 boxes in the dorsal, medial and ventral caudal fin (~100 μm from the edge). […]
# cutaneous sensory axons = test: Axon branch number in caudal fin (acetylated tubulin staining); assay type: in vivo, zebrafish
# Method: as §1, §2
# Axon branch number quantifications were performed by drawing a 50 μm line across the dorsal, medial, and ventral caudal fin edge region at a distance of 100 μm parallel to the fin edge (which was determined to be the most reliable region to quantify distal branch numbers). Axons traversing this line were counted and averaged per treatment group. Axonal fluorescence measurements were taken using the Imaris Spots function by manually placing spots along the axon and using the fluorescence intensity profile measurements MatLab tool.
# Stretching was performed after 96 hr treatment, followed by 2 hr post-stretch fixation, and staining for detection of acetylated tubulin in axons.
# To further validate Eg5 as the pharmacological target of EMD534085 in axon regeneration, zebrafish injected with kif11 CRISPR oligo were also analyzed.
# Eg5 = Eg5 immunofluorescence in zebrafish caudal fin; assay type: in vivo; settings: transient kif11 CRISPR, exon 5
# Method: as §1
# Larval fish were transferred into […] glass vials and fixed in 4% paraformaldehyde (PFA)/1× Phosphate-buffered saline (PBS) for 1.5 hr at room temperature, with gentle rocking. Following a 5-minute incubation in 1×PBS+0.1% Tween-20 (PBST), zebrafish were permeabilized in 1×PBS+0.1% Triton X-100 for 10-30 min. Larval fish were transferred into 2 ml reaction tubes and incubated in blocking buffer (1×PBST+5% BSA) for 30 min at room temperature, with rocking. […]
compound,measurement,setting,value
CCOC(=O)C1=C(C)NC(=S)NC1c1cccc(O)c1 (centres unmarked) [monastrol],effect on CIPN caused by bortezomib,[1],shown to alleviate CIPN caused by bortezomib
same,neurite outgrowth,mouse DRG neurons,promotes neurite outgrowth
"kif11 CRISPR: CRISPR oligo (5′-AGGTGACCGATCACCCAATG (SEQ ID NO: 21)) targeting exon 5 of zebrafish kif11, injected as Cas9 ribonucleoprotein (injected as Cas9 ribonucleoprotein, chemistry not given here)",normalized detyrosination fluorescence intensity,[2]; kif11 CRISPR + paclitaxel,0.85±0.11
same,normalized detyrosination fluorescence intensity,[2]; kif11 CRISPR+vehicle,1.12±0.2
same,number of keratinocytes per animal with dfMTs,[3]; kif11 CRISPR+22 μM paclitaxel,0.29±0.16
same,percent animals with dfMTs,[3]; kif11 CRISPR+22 μM paclitaxel,25%
same,number of keratinocytes per animal with dfMTs,[3]; kif11 CRISPR+vehicle,0±0
same,percent animals with dfMTs,[3]; kif11 CRISPR+vehicle,0%
same,axon branch number,cutaneous sensory axons; kif11-CRISPR+22 μM paclitaxel,12.83±0.96 branches/50 μm
same,axon branch number,cutaneous sensory axons; kif11-CRISPR+vehicle,12.08±0.68 branches/50 μm
same,Eg5 protein expression,Eg5,eliminated Eg5 protein expression

# From US20260345584A1, “METHODS AND PHARMACEUTICAL COMPOSITIONS FOR TREATING CHEMOTHERAPY-INDUCED PERIPHERAL NEUROPATHY WITH EG5 INHIBITORS” (UNIVERSITY OF MIAMI, priority 2023, published 2026)
